Measurements from the NIST ThermoML archive (doi:10.1021/je800828y).
Numbers after ± are expanded uncertainties.

Details: 351.44 K; Liquid; Ebulliometric method (Recirculating still)

- vapor or sublimation pressure: 101.3 ± 0.1 kPa
SMILES: CCO [ethanol]
